According to publication PMC9184620, “TAS1553, a small molecule subunit interaction inhibitor of ribonucleotide reductase, exhibits antitumor activity by causing DNA replication stress” (Communications Biology, 2022):

Key:
HCC38 and MV-4-11 cells = test: Immunoblotting of DNA replication stress and apoptosis markers; format: cell-based, human; conditions: both cell lines
Experimental: Because dATP is a critical metabolite for DNA replication, we next examined whether TAS1553 caused DNA replication stress. We evaluated phosphorylation of Chk1 at Ser345 in HCC38 and MV-4-11 cells by treating them with TAS1553 for 2 h. […] Because phosphorylated RPA2 at Thr21 binds to single-strand DNA at the stalled replication fork[42], TAS1553 may cause the replication fork stalling. To test this possibility, we analyzed the nuclear localization of phosphorylated RPA2 at Thr21.
Next, we examined the effect of TAS1553 on apoptosis induction in HCC38 and MV-4-11 cells. We treated TAS1553 at 1 or 10 µmol/L for 24 h and analyzed the time-dependent change of cleaved PARP and cleaved caspase-3 (Fig. 2g). Compared with control cells (0 h), phosphorylation of Chk1 at Ser345 was increased after 1 h of TAS1553 treatment at 1 and 10 μmol/L in both cell lines. Phosphorylation of RPA2 was also detected after 2 h of treatment with TAS1553 at 10 μmol/L. Following the induction of replication stress and fork stalling, cleaved PARP and cleaved caspase-3 levels were increased in both cell lines after 4 h of TAS1553 treatment at 10 μmol/L or after 8 h of treatment at 1 μmol/L.
Immunoblotting analysis was performed as reported previously. […] Proteins were separated by SDS-PAGE and analyzed by Western blotting. […] The signals were detected with the ImageQuant LAS 4010 (GE Healthcare UK Ltd.).

[1] = tested on: 68 proteins (ion channels, transporters, nuclear receptors, G protein-coupled receptors); test: Eurofins LeadProfilingScreen panel assay; format: binding; conditions: 10 μmol/L; significant defined as >50% inhibition for each target protein
Experimental: The binding affinity of TAS1553 to the R1 subunit was investigated using surface plasmon resonance (SPR) binding analysis. […] Next, we evaluated the inhibitory effect of TAS1553 against the enzymatic activity of RNR, consisting of R1 and R2 recombinant proteins. RNR activity was determined by its ability to reduce cytidine diphosphate (CDP) to deoxycytidine diphosphate (dCDP), based on a previous report. […] In addition to the inhibitory effect on RNR, TAS1553 was evaluated in a Eurofins LeadProfilingScreen panel assay including 68 proteins, such as ion channels, transporters, nuclear receptors, and G protein-coupled receptors, to examine its potential adverse activity.

What does the source list for Cc1ccc(F)c([C@@H](C)[C@H](NS(=O)(=O)c2ccc(Cl)cc2C(N)=O)c2n[nH]c(=O)o2)c1C [TAS1553, 5-chloro-2-{N-[(1S,2R)-2-(6-fluoro-2,3-dimethylphenyl)-1-(5-oxo-4,5-dihydro-1,3,4-oxadiazol-2-yl)propyl]sulfamoyl}benzamide]?
phosphorylation of Chk1 at Ser345 (HCC38 and MV-4-11 cells; 1 µmol/L, 2 h): markedly induced; cleaved PARP and cleaved caspase-3 levels (HCC38 and MV-4-11 cells; after 4 h at 10 μmol/L or 8 h at 1 μmol/L): increased; inhibition in 68-protein panel [1]: no significant inhibition
